# Source: patent publication US20260356819A1, “OXOISOINDOLINYL-SUBSTITUTED […] DERIVATIVE AND USE THEREOF” (GLUETACS THERAPEUTICS (SHANGHAI) CO., LTD., priority 2023, published 2026)
# Key:
# Assay type in all cases: cell-based
# Details in all cases: compounds at 50 nM and 500 nM
# IKZF3 = molecular target: T1, IKZF3 (Homo sapiens, UniProt Q96SW2+Q9UKT9); assay: Western blot degradation of IKZF3 in hPBMCs (24 h)
# T1 construct: The supernatant was aspirated as the extracted total cell protein; endogenous in cells; host or cells: human peripheral blood mononuclear cells (hPBMCs)
# Procedure, shortened: (§1)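 Thawed human PBMCs, 1×10^6 cells/mL; cpd 50 nM or 500 nM, 24 h; RIPA lysis, BCA, SDS-PAGE, NC transfer, immunoblot. Readout: grayscale/internal control → % remaining; degradation = 1 − remaining.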
# IKZF2 = molecular target: T2, IKZF2 (Homo sapiens, UniProt Q96SW2+Q9UKS7); assay: Western blot degradation of IKZF2 in hPBMCs (24 h)
# T2 construct: The supernatant was aspirated as the extracted total cell protein; endogenous in cells; host or cells: human peripheral blood mononuclear cells (hPBMCs)
# Procedure, shortened: as §1
# WEE1 = molecular target: T3, WEE1 (Homo sapiens, UniProt P30291+Q96SW2); assay: Western blot degradation of WEE1 in hPBMCs (24 h)
# T3 construct: The supernatant was aspirated as the extracted total cell protein; endogenous in cells; host or cells: human peripheral blood mononuclear cells (hPBMCs)
# Procedure, shortened: as §1
# GSPT1 = molecular target: T4, GSPT1 (Homo sapiens, UniProt P15170+Q96SW2); assay: Western blot degradation of GSPT1 in hPBMCs (24 h)
# T4 construct: The supernatant was aspirated as the extracted total cell protein; endogenous in cells; host or cells: human peripheral blood mononuclear cells (hPBMCs)
# Procedure, shortened: as §1
# IKZF1 = molecular target: T5, IKZF1 (Homo sapiens, UniProt Q13422+Q96SW2); assay: Western blot degradation of IKZF1 in hPBMCs (24 h)
# T5 construct: The supernatant was aspirated as the extracted total cell protein; endogenous in cells; host or cells: human peripheral blood mononuclear cells (hPBMCs)
# Procedure, shortened: as §1
# CK1α = molecular target: T6, CK1α (Homo sapiens, UniProt P48729+Q96SW2); assay: Western blot degradation of CK1α in hPBMCs (24 h)
# T6 construct: The supernatant was aspirated as the extracted total cell protein; endogenous in cells; host or cells: human peripheral blood mononuclear cells (hPBMCs)
# Procedure, shortened: as §1
# T3 sequence (P30291 whole entry): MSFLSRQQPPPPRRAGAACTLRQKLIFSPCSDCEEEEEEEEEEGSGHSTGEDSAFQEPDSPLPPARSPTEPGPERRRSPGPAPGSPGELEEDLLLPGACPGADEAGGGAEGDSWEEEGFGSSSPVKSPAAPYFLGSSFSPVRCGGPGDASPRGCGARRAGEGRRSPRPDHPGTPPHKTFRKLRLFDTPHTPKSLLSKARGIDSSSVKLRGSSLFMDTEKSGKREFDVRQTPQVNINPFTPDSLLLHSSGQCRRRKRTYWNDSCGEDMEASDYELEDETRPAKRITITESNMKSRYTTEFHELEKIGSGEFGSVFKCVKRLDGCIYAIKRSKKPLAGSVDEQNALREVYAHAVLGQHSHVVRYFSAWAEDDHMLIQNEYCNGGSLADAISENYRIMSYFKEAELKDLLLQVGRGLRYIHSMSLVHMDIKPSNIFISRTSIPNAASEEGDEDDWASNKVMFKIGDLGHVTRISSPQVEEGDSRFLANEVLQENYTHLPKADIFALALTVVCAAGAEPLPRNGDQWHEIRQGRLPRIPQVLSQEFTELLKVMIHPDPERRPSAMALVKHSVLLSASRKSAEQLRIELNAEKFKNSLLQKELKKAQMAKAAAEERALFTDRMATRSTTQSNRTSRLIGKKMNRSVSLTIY
# T3 sequence (Q96SW2 whole entry): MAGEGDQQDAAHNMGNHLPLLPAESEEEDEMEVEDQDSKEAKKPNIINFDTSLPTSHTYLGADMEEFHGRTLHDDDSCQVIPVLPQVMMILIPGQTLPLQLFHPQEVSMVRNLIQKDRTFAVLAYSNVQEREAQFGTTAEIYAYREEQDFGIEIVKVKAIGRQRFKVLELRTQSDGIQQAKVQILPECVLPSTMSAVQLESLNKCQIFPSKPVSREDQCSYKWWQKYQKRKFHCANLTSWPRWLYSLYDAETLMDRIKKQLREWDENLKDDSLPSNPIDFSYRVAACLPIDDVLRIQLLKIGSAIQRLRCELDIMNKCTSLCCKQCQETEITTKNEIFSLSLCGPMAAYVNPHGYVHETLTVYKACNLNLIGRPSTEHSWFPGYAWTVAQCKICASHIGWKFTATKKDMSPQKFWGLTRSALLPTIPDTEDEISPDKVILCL
# T3 sequence (Q16531 whole entry partner): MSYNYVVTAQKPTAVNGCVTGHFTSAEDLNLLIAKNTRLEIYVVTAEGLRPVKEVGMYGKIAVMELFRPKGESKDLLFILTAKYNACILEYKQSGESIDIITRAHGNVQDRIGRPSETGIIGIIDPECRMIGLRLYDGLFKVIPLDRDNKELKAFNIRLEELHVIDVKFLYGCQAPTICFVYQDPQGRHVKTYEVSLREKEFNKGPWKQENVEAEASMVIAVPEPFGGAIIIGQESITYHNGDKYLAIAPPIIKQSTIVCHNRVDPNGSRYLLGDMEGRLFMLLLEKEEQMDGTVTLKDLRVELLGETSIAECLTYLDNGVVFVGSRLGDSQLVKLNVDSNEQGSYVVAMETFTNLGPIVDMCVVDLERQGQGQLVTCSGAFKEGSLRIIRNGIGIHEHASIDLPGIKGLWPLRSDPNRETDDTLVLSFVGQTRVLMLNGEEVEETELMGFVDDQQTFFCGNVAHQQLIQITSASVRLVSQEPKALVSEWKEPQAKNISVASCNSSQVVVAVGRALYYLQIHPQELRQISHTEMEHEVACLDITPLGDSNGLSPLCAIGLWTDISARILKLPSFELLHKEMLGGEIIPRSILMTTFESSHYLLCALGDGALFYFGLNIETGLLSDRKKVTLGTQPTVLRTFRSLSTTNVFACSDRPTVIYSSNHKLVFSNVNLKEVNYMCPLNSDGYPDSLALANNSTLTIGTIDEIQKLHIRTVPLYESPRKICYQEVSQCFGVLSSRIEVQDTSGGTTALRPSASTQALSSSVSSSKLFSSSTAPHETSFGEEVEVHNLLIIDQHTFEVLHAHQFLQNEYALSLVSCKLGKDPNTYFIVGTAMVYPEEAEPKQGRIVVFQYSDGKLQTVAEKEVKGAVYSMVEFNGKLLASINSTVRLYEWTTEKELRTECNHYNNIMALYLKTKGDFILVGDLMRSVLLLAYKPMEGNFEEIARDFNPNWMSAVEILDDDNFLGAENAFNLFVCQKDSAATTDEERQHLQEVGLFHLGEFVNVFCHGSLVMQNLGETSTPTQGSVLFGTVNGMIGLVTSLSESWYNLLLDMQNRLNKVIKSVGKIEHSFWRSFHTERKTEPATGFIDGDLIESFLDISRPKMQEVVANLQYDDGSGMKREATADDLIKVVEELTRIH
# T5 sequence (Q13422 whole entry): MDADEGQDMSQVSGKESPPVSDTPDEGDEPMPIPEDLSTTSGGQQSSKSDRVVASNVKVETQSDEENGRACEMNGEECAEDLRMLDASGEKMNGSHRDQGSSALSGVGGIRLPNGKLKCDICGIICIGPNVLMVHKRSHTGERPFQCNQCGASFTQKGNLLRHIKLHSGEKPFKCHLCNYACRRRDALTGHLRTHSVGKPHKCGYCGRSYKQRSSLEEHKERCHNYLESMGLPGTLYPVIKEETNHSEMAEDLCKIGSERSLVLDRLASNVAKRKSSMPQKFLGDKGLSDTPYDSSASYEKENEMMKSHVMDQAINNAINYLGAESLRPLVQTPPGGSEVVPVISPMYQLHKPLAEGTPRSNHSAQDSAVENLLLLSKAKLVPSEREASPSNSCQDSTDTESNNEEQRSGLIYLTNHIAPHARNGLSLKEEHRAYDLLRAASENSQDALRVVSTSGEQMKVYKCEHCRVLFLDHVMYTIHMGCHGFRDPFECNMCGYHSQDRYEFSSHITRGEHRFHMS
# T5 sequence (Q96SW2 whole entry): as the sequence (Q96SW2 whole entry) above
# T5 sequence (Q16531 whole entry partner): as the sequence (Q16531 whole entry partner) above
# T2 sequence (Q9UKS7 whole entry): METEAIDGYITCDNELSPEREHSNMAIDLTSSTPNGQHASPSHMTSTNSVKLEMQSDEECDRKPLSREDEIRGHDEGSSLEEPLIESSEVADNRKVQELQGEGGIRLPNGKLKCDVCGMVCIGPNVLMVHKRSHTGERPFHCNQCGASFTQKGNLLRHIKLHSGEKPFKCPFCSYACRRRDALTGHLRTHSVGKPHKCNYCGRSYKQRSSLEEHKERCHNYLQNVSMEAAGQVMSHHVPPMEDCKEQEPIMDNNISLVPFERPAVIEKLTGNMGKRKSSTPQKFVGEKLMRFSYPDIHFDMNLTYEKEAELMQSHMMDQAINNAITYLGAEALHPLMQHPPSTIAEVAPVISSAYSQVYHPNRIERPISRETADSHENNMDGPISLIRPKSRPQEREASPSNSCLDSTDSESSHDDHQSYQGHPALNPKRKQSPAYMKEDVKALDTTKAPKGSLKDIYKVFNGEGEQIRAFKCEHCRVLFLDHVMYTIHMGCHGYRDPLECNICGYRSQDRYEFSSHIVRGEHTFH
# T2 sequence (Q96SW2 whole entry): as the sequence (Q96SW2 whole entry) above
# T2 sequence (Q16531 whole entry partner): as the sequence (Q16531 whole entry partner) above
# T4 sequence (P15170 whole entry): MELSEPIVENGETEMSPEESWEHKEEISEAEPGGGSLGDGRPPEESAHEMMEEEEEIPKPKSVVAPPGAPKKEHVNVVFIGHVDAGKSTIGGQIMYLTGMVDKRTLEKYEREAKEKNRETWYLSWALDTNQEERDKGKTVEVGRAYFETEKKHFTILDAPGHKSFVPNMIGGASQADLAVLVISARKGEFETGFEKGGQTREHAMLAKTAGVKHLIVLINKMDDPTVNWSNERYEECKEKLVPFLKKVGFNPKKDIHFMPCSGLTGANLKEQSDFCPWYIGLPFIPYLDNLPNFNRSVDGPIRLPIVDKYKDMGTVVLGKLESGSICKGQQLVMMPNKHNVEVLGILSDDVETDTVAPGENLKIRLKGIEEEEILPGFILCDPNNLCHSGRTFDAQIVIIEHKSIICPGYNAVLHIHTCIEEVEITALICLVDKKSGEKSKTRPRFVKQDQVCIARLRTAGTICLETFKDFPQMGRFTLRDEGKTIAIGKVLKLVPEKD
# T4 sequence (Q96SW2 whole entry): as the sequence (Q96SW2 whole entry) above
# T4 sequence (Q16531 whole entry partner): as the sequence (Q16531 whole entry partner) above
# T1 sequence (Q9UKT9 whole entry): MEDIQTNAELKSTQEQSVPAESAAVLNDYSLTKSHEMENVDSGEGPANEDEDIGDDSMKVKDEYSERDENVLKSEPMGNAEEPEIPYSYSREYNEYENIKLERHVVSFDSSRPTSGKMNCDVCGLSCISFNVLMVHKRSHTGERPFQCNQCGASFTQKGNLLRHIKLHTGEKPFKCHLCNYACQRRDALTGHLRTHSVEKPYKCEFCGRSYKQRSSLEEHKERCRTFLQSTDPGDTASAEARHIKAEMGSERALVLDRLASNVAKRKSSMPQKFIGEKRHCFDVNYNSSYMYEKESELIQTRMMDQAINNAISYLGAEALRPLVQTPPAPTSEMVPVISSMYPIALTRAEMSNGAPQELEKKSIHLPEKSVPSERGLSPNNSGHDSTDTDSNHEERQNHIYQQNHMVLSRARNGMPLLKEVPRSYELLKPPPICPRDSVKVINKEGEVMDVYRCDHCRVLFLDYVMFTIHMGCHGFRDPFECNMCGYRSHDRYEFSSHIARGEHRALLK
# T1 sequence (Q96SW2 whole entry): as the sequence (Q96SW2 whole entry) above
# T1 sequence (Q16531 whole entry partner): as the sequence (Q16531 whole entry partner) above
Structure (SMILES),IKZF3 substrate protein remaining % (IKZF3),IKZF2 substrate protein remaining % (IKZF2),WEE1 substrate protein remaining % (WEE1),GSPT1 substrate protein remaining % (GSPT1),IKZF1 substrate protein remaining % (IKZF1),CK1α substrate protein remaining % (CK1α)
"O=C1CCN(N2C(=O)c3ccc(CN4CCC(c5noc6ccccc56)CC4)cc3C2=O)C(=O)N1 [GT-07522, 5-((4-(benzo[d]isoxazol-3-yl)piperidin-1-yl)methyl)-2-(2,4-dioxotetrahydropyrimidin-1(2H)-yl)isoindoline-1,3-dione]",B (80%< substrate protein remaining % ≤100%),A (0% ≤ substrate protein remaining % ≤80%),A (0% ≤ substrate protein remaining % ≤80%),A (0% ≤ substrate protein remaining % ≤80%),A (0% ≤ substrate protein remaining % ≤80%),A (0% ≤ substrate protein remaining % ≤80%)
"O=C1CCN(N2C(=O)c3ccc(CN4CCC(c5ccon5)CC4)cc3C2=O)C(=O)N1 [GT-07523, 2-(2,4-dioxotetrahydropyrimidin-1(2H)-yl)-5-((4-(isoxazol-3-yl)piperidin-1-yl)methyl)isoindoline-1,3-dione]",B (80%< substrate protein remaining % ≤100%),A (0% ≤ substrate protein remaining % ≤80%),A (0% ≤ substrate protein remaining % ≤80%),A (0% ≤ substrate protein remaining % ≤80%),A (0% ≤ substrate protein remaining % ≤80%),A (0% ≤ substrate protein remaining % ≤80%)
"O=C1CCN(N2C(=O)c3ccc(CN4CCN(c5noc6cc(F)ccc56)CC4)cc3C2=O)C(=O)N1 [GT-07524, 2-(2,4-dioxotetrahydropyrimidin-1(2H)-yl)-5-((4-(6-fluorobenzo[d]isoxazol-3-yl)piperazin-1-yl)methyl)isoindoline-1,3-dione]",B (80%< substrate protein remaining % ≤100%),A (0% ≤ substrate protein remaining % ≤80%),A (0% ≤ substrate protein remaining % ≤80%),A (0% ≤ substrate protein remaining % ≤80%),A (0% ≤ substrate protein remaining % ≤80%),B (80%< substrate protein remaining % ≤100%)
"O=C1CCN(N2C(=O)c3ccc(CN4CCN(c5noc6ccncc56)CC4)cc3C2=O)C(=O)N1 [GT-07525, 2-(2,4-dioxotetrahydropyrimidin-1(2H)-yl)-5-((4-(isoxazolo[4,5-c]pyridin-3-yl)piperazin-1-yl)methyl)isoindoline-1,3-dione]",B (80%< substrate protein remaining % ≤100%),B (80%< substrate protein remaining % ≤100%),B (80%< substrate protein remaining % ≤100%),A (0% ≤ substrate protein remaining % ≤80%),B (80%< substrate protein remaining % ≤100%),A (0% ≤ substrate protein remaining % ≤80%)
"O=C1CCN(N2C(=O)c3ccc(CN4CCN(c5nsc6cc(F)ccc56)CC4)cc3C2=O)C(=O)N1 [GT-07526, 2-(2,4-dioxotetrahydropyrimidin-1(2H)-yl)-5-((4-(6-fluorobenzo[d]isothiazol-3-yl)piperazin-1-yl)methyl)isoindoline-1,3-dione]",B (80%< substrate protein remaining % ≤100%),B (80%< substrate protein remaining % ≤100%),B (80%< substrate protein remaining % ≤100%),A (0% ≤ substrate protein remaining % ≤80%),B (80%< substrate protein remaining % ≤100%),A (0% ≤ substrate protein remaining % ≤80%)
"O=C1CCN(N2C(=O)c3ccc(CN4CCN(c5n[nH]c6cc(F)ccc56)CC4)cc3C2=O)C(=O)N1 [GT-07527, 2-(2,4-dioxotetrahydropyrimidin-1(2H)-yl)-5-((4-(6-fluoro-1H-indazol-3-yl)piperazin-1-yl)methyl)isoindoline-1,3-dione]",B (80%< substrate protein remaining % ≤100%),B (80%< substrate protein remaining % ≤100%),B (80%< substrate protein remaining % ≤100%),A (0% ≤ substrate protein remaining % ≤80%),B (80%< substrate protein remaining % ≤100%),A (0% ≤ substrate protein remaining % ≤80%)
"O=C1CCN(N2C(=O)c3ccc(CN4CCN(c5c[nH]c6ncccc56)CC4)cc3C2=O)C(=O)N1 [GT-07528, 5-((4-(1H-pyrrolo[2,3-b]pyridin-3-yl)piperazin-1-yl)methyl)-2-(2,4-dioxotetrahydropyrimidin-1(2H)-yl)isoindoline-1,3-dione]",B (80%< substrate protein remaining % ≤100%),B (80%< substrate protein remaining % ≤100%),B (80%< substrate protein remaining % ≤100%),A (0% ≤ substrate protein remaining % ≤80%),B (80%< substrate protein remaining % ≤100%),A (0% ≤ substrate protein remaining % ≤80%)
"O=C1CCN(N2C(=O)c3ccc(CN4CCC(n5cnc6cc(F)ccc65)CC4)cc3C2=O)C(=O)N1 [GT-07529, 2-(2,4-dioxotetrahydropyrimidin-1(2H)-yl)-5-((4-(5-fluoro-1H-benzo[d]imidazol-1-yl)piperidin-1-yl)methyl)isoindoline-1,3-dione]",B (80%< substrate protein remaining % ≤100%),B (80%< substrate protein remaining % ≤100%),B (80%< substrate protein remaining % ≤100%),A (0% ≤ substrate protein remaining % ≤80%),B (80%< substrate protein remaining % ≤100%),A (0% ≤ substrate protein remaining % ≤80%)
"O=C1CCN(N2C(=O)c3ccc(CN4CCC(c5n[nH]c6cc(F)ccc56)CC4)cc3C2=O)C(=O)N1 [GT-07530, 2-(2,4-dioxotetrahydropyrimidin-1(2H)-yl)-5-((4-(6-fluoro-1H-indazol-3-yl)piperidin-1-yl)methyl)isoindoline-1,3-dione]",B (80%< substrate protein remaining % ≤100%),B (80%< substrate protein remaining % ≤100%),A (0% ≤ substrate protein remaining % ≤80%),A (0% ≤ substrate protein remaining % ≤80%),B (80%< substrate protein remaining % ≤100%),A (0% ≤ substrate protein remaining % ≤80%)
"O=C1CCN(N2Cc3cc(CN4CCN(c5n[nH]c6cc(F)ccc56)CC4)ccc3C2=O)C(=O)N1 [GT-07545, 1-(5-((4-(6-fluoro-1H-indazol-3-yl)piperazin-1-yl)methyl)-1-oxoisoindolin-2-yl)dihydropyrimidine-2,4(1H,3H)-dione]",B (80%< substrate protein remaining % ≤100%),B (80%< substrate protein remaining % ≤100%),A (0% ≤ substrate protein remaining % ≤80%),A (0% ≤ substrate protein remaining % ≤80%),A (0% ≤ substrate protein remaining % ≤80%),A (0% ≤ substrate protein remaining % ≤80%)
"O=C1CCN(N2Cc3cc(CN4CC=C(c5c[nH]c6cc(F)ccc56)CC4)ccc3C2=O)C(=O)N1 [GT-07574, 1-(5-((4-(6-fluoro-1H-indol-3-yl)-3,6-dihydropyridin-1(2H)-yl)methyl)-1-oxoisoindolin-2-yl)dihydropyrimidine-2,4(1H,3H)-dione]",B (80%< substrate protein remaining % ≤100%),A (0% ≤ substrate protein remaining % ≤80%),A (0% ≤ substrate protein remaining % ≤80%),A (0% ≤ substrate protein remaining % ≤80%),B (80%< substrate protein remaining % ≤100%),A (0% ≤ substrate protein remaining % ≤80%)
"O=C1CCN(N2Cc3cc(CN4CCC(c5c[nH]c6ncccc56)CC4)ccc3C2=O)C(=O)N1 [GT-07576, 1-(5-((4-(1H-pyrrolo[2,3-b]pyridin-3-yl)piperidin-1-yl)methyl)-1-oxoisoindolin-2-yl)dihydropyrimidine-2,4(1H,3H)-dione]",B (80%< substrate protein remaining % ≤100%),A (0% ≤ substrate protein remaining % ≤80%),A (0% ≤ substrate protein remaining % ≤80%),A (0% ≤ substrate protein remaining % ≤80%),A (0% ≤ substrate protein remaining % ≤80%),A (0% ≤ substrate protein remaining % ≤80%)
